Experimental data taken from patent publication US20210282378A1, “Mutant Mouse-Derived Pancreatic Organoid and Method for Evaluating Standardized Drug for Efficacy” (Seoul National University R&DB Foundation, priority 2018, published 2021).

Columns and labels:
[1] = system: pancreatic organoids derived from BRCA2 gene-deleted mice (Brca2^F11/F11; CreER™); assay: Drug responsiveness of pancreatic organoids with normal or exon 11-deleted BRCA2, observed with an inverted microscope; format: cell-based, mouse; details: alone or in combination with 200 nM TSA, with vs without BRCA2 exon 11 deletion, FIG. 6
Method: With reference to the method of Example 2 above, pancreatic organoids derived from BRCA2 gene-deleted mice (Brca2^F11/F11; CreER™) were prepared. To induce a partial deletion of BRCA2 gene (deletion of exon 11 of BRCA2 gene), 4-hydroxytamoxifen (4-OHT) was added to the organoids in an amount of 400 nM, and the resulting organoids were cultured for 3 weeks or more (see Example 2). For comparison, organoids not treated with 4-OHT (in which BRCA2 gene is normal) were also prepared.
Organoids having normal BRCA2 gene (not treated with 4-OHT) and organoids with a partial deletion of BRCA2 (exon 11 deletion) were seeded in equal amounts into 24-well plates. On the day after seeding, the organoids were treated with a mixture of the anticancer agent histone deacetylase inhibitor (HDACi) and a culture medium (see Example 2).
3 days after treatment (first treatment) with HDACi, the culture medium was replaced with a fresh medium, and treatment (second treatment) with each HDACi was performed again at the concentration shown in Table 3. Here, the primary treatment with HDACi was performed about 24 to 48 hours after seeding of the organoids, and 3 days after that, the second treatment was performed.

[2] = system: normal pancreatic organoids; assay: Effect of Resveratrone on normal organoids; format: cell-based, mouse; details: 0, 200 or 500 μM
Method: Pancreatic tissue isolated from the genetically mutated mice described in Examples 1 to 7 above was dissociated. Cell pellets containing ductal cells were collected from the dissociated pancreatic tissue. The collected cell pellets were grown with a biomatrix in a cell incubator at 37° C. under 5% CO2. Thereafter, the produced organoids were grown in an organoid culture medium until 75% or more thereof grew to a diameter of 200 to 500 μm. […] The organoids were treated with a drug diluted in an organoid culture medium. […] As a result of the measurement, it could be confirmed that, when the above-described drug treatment method was used, it was possible to track the drug responsiveness of each organoid, which was a limitation of a conventional drug screening method using organoids, and drug treatment in a uniform size state was possible. […] As the maximum value of the average diameter of the collected organoids increases, the difference in size (average diameter) between the organoids included increases, so that the difference in responsiveness to the same drug between the organoids increases. Thus, in order to obtain a uniform drug responsiveness result, it is important to determine the upper limit of the size (average diameter) of the organoids. […]

[3] = system: mouse-derived normal organoids; assay: p53 expression level by Western blot, normal organoids; format: cell-based; details: two treatments 72 hours apart, day 5 after primary treatment; FIG. 15
Method: (§1) The mouse-derived organoids described in Examples 1 to 7 or patient-derived organoids were primarily treated with a drug, and after 72 hours, secondarily treated with the drug. As the drug, Resveratrone used in Examples 9 and 10 was used. On day 2 after the secondary drug treatment (day 5 after the primary drug treatment), the cell culture medium was removed, and then the cells were washed with 1 ml of PBS. After removal of PBS, the cells were mechanically dissociated with 500 μl of a recovery solution. The cell solution was agitated at 50 to 70 rpm at 4° C. for 1 hour, transferred into a microtube, and then centrifuged at 1200 rpm for 5 minutes, followed by removal of the supernatant. The remaining pellet was lysed with NETN buffer, and then sonicated using a sonicator for 1 minute with an output of 2 to 3 and centrifuged at 12,000 rpm for 20 to 30 minutes, and the supernatant was collected. The supernatant was quantified to 100 to 120 μg using Bradford assay, and then loaded onto a 10% polyacrylamide gel, followed by SD S-PAGE (Sodium Dodecyl Sulfate-Polyacrylamide gel electrophoresis) gel running. Then, the gel was transferred to a nitrocellulose membrane, and the transferred membrane was blocked with 5% skim milk while stirring at 50 rpm for 1 hour at RT. […]

[4] = system: patient-derived organoids; assay: p53 expression level by Western blot, patient-derived organoids; format: cell-based, human; details: two treatments 72 hours apart, day 5 after primary treatment; FIG. 15
Method: as §1

[5] = system: pancreatic organoids from Kras^G12D mutant mice; format: cell-based, mouse; details: FIG. 14A
Method: The organoids were treated with 0 μM, 200 μM or 500 μM of the drug, followed by analysis of GFP (see FIG. 14A).

[6] = system: mutant organoids (cancer-like); assay: p53 expression level by Western blot, mutant organoids; format: cell-based, mouse; details: two treatments 72 hours apart, day 5 after primary treatment; FIG. 15
Method: as §1

CC[C@@H]1C(=O)N(C)c2cnc(Nc3ccc(C(=O)NC4CCN(C)CC4)cc3OC)nc2N1C1CCCC1 [BI2536]
responsiveness to the tested drugs (state of the organoids) ([1]; 10 nM): did differ depending on the presence or absence of the BRCA2 gene

O=C(c1cc(Cc2n[nH]c(=O)c3ccccc23)ccc1F)N1CCN(C(=O)C2CC2)CC1 [Olaparib]
responsiveness to the tested drugs (state of the organoids) ([1]; 10 μM): did differ depending on the presence or absence of the BRCA2 gene

CC(=O)/C=C/c1ccc2cc(O)cc(O)c2c1 [Resveratrone]
effect of the drug on normal pancreatic organoids [2]: no effect | expression level of p53 [3]: increased | expression level of p53, normal vs cancer tendency [4]: this tendency was also found in the patient-derived organoids | GFP / green fluorescence of dying cells ([5]; 200 μM): exhibited fluorescence | GFP / cell death ([5]; 500 μM): cell death occurred and GFP decreased | expression level of p53 [6]: did not increase
